From PubChem BioAssay (NCI)
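These data come from cells grown in 96-well plates and exposed to compound for 48 hours at five concentrations. TGI denotes the concentration required for complete inhibition of growth.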 Where a SMILES comes first, the peptide text is derived from it. The star is where a group is joined. Boc = CC(C)(C)OC(=O)*

How the values were obtained:
Experiment in all cases: NCI tumour cell line growth inhibition, 48 h
786-0 renal = test system: 786-0 renal
A498 renal = test system: A498 renal
A549 NSCLC = test system: A549 NSCLC
ACHN renal = test system: ACHN renal
BT-549 breast = test system: BT-549 breast
CAKI-1 renal = test system: CAKI-1 renal
CCRF-CEM leukemia = test system: CCRF-CEM leukemia
COLO 205 colon = test system: COLO 205 colon
DLD-1 colon = test system: DLD-1 colon
DMS 114 small cell lung = test system: DMS 114 small cell lung
DMS 273 small cell lung = test system: DMS 273 small cell lung
DU-145 prostate = test system: DU-145 prostate
EKVX NSCLC = test system: EKVX NSCLC
HCC-2998 colon = test system: HCC-2998 colon
HCT-116 colon = test system: HCT-116 colon
HCT-15 colon = test system: HCT-15 colon
HL-60(TB) leukemia = test system: HL-60(TB) leukemia
HOP-18 NSCLC = test system: HOP-18 NSCLC
HOP-62 NSCLC = test system: HOP-62 NSCLC
HOP-92 NSCLC = test system: HOP-92 NSCLC
HS 578T breast = test system: HS 578T breast
HT29 colon = test system: HT29 colon
IGROV1 ovarian = test system: IGROV1 ovarian
K-562 leukemia = test system: K-562 leukemia
KM12 colon = test system: KM12 colon
KM20L2 colon = test system: KM20L2 colon
LOX IMVI melanoma = test system: LOX IMVI melanoma
M14 melanoma = test system: M14 melanoma
M19-MEL melanoma = test system: M19-MEL melanoma
MALME-3M melanoma = test system: MALME-3M melanoma
MCF7 breast = test system: MCF7 breast
MDA-MB-231 breast = test system: MDA-MB-231 breast
MDA-MB-435 = test system: MDA-MB-435
MDA-N = test system: MDA-N
MOLT-4 leukemia = test system: MOLT-4 leukemia
NCI-H226 lung = test system: NCI-H226 lung
NCI-H23 lung = test system: NCI-H23 lung
NCI-H460 lung = test system: NCI-H460 lung
NCI-H522 lung = test system: NCI-H522 lung
NCI/ADR-RES ovarian = test system: NCI/ADR-RES ovarian
OVCAR-3 ovarian = test system: OVCAR-3 ovarian
OVCAR-4 ovarian = test system: OVCAR-4 ovarian
OVCAR-5 ovarian = test system: OVCAR-5 ovarian
OVCAR-8 ovarian = test system: OVCAR-8 ovarian
PC-3 prostate = test system: PC-3 prostate
RPMI-8226 leukemia = test system: RPMI-8226 leukemia
RXF 393 renal = test system: RXF 393 renal
RXF-631 renal = test system: RXF-631 renal
SF-268 CNS = test system: SF-268 CNS
SF-295 CNS = test system: SF-295 CNS
SF-539 CNS = test system: SF-539 CNS
SK-MEL-2 melanoma = test system: SK-MEL-2 melanoma
SK-MEL-28 melanoma = test system: SK-MEL-28 melanoma
SK-MEL-5 melanoma = test system: SK-MEL-5 melanoma
SK-OV-3 ovarian = test system: SK-OV-3 ovarian
SN12C renal = test system: SN12C renal
SNB-19 CNS = test system: SNB-19 CNS
SNB-75 CNS = test system: SNB-75 CNS
SNB-78 CNS = test system: SNB-78 CNS
SR leukemia = test system: SR leukemia
SW-620 colon = test system: SW-620 colon
T-47D breast = test system: T-47D breast
TK-10 renal = test system: TK-10 renal
U251 CNS = test system: U251 CNS
UACC-257 melanoma = test system: UACC-257 melanoma
UACC-62 melanoma = test system: UACC-62 melanoma
UO-31 renal = test system: UO-31 renal
XF 498 CNS = test system: XF 498 CNS
LXFL 529 NSCLC = test system: LXFL 529 NSCLC

Measured: TGI

Cc1cc2c(cc1C)[n+](=O)c(C(=O)/C=C/c1ccc3c(c1)OCO3)c(C)n2[O-]
79.3 µM: SNB-19 CNS
> 81.5 µM: IGROV1 ovarian
> 84.5 µM: DMS 114 small cell lung
79.4 µM: NCI-H522 lung
> 75.8 µM: ACHN renal
50 µM: SF-295 CNS
88.6 µM: SK-MEL-2 melanoma
59.1 µM: HOP-62 NSCLC
> 76.9 µM: SF-268 CNS
52.2 µM: SK-OV-3 ovarian
69.1 µM: HOP-92 NSCLC
39.9 µM: SNB-75 CNS
64 µM: HS 578T breast
> 89 µM: CAKI-1 renal
53.3 µM: TK-10 renal
> 91.3 µM: RXF-631 renal
54.9 µM: XF 498 CNS
62.7 µM: U251 CNS
> 85.2 µM: LOX IMVI melanoma
> 89.1 µM: NCI-H23 lung
59.5 µM: UACC-62 melanoma
66.6 µM: RXF 393 renal
not listed: LXFL 529 NSCLC
> 100 µM: all other assays above

CSCCC(NC(=O)C(CC(C)C)NC(=O)C1CCCN1C(=O)C(Cc1ccccc1)NC(=O)C(Cc1ccccc1)NC(=O)C(CCC(=O)O)NC(=O)OC(C)(C)C)C(N)=O (stereo unspecified) (Boc-EFFPLM-NH2; configuration not given here)
not listed: A549 NSCLC | ACHN renal | BT-549 breast | DU-145 prostate | EKVX NSCLC | HCT-15 colon | HOP-18 NSCLC | HS 578T breast | HT29 colon | KM12 colon | KM20L2 colon | MCF7 breast | MDA-MB-231 breast | MDA-MB-435 | MDA-N | NCI/ADR-RES ovarian | OVCAR-3 ovarian | OVCAR-5 ovarian | OVCAR-8 ovarian | PC-3 prostate | RXF 393 renal | SF-295 CNS | SK-MEL-5 melanoma | SNB-19 CNS | SW-620 colon | T-47D breast | TK-10 renal | U251 CNS | UACC-257 melanoma
> 100 µM: all other assays above

Cc1cc2c(c3nocc13)C(=O)c1ccccc1C2=O
not listed: A498 renal | BT-549 breast | DU-145 prostate | HCT-116 colon | HS 578T breast | MCF7 breast | MDA-MB-231 breast | MDA-MB-435 | MDA-N | NCI-H226 lung | NCI/ADR-RES ovarian | PC-3 prostate | SNB-78 CNS | SR leukemia | T-47D breast | XF 498 CNS
> 100 µM: all other assays above
